Where two headings read alike, the source gives them in different places.
Test system: cholesterol absorption
Assay: Inhibition of cholesterol absorption in rats fed 1% cholesterol:0.5% cholic acid diet
Assay type: in vivo, male Sprague-Dawley rats
Details: rat, 2 weeks; for response vs control in vivo at 0.03 % / response vs control in vivo at 0.001 % / response vs control in vivo at 0.003 % / response vs control in vivo at 0.01 %: po, 336 h; for response vs control in vivo at 0.03 %: dose .03% of the diet; for response vs control in vivo at 0.001 %: dose .001% of the diet; for response vs control in vivo at 0.01 %: dose .01% of the diet
Protocol: Inhibition of cholesterol absorption was determined by feeding male Sprague-Dawley rats, weighing 150-170 g, a 1% cholesterol:0.5% cholic acid diet for 2 weeks. The diet also contained compounds being tested at a dose of 0.001, 0.003, 0.01, or 0.03% of the diet. Control rats were fed the same diet without any compound. At the end of the test, the rats were sacrificed by decapitation. Blood was collected, centrifuged at […] for 10 minutes at 4° C.; and the serum was then analyzed for cholesterol and triglycerides enzymatically by the method of Trinder, P., Analyst, 77, 321 (1952) on a Centrifichem 400 analyzer. Livers were removed, a 0.4 g sample was taken from the center of the large lobe, and the sample was subjected to saponification using 25% saturated potassium hydroxide in ethanol. The resulting neutral sterols were extracted with petroleum ether and the extract analyzed for cholesterol. The effectiveness of the compound in inhibiting cholesterol absorption was measured by the lowering of either serum cholesterol or liver cholesterol relative the values for control rats.
Compounds which produced statistically significant inhibition of cholesterol absorption are considered to be active. Liver sterol (LS) and serum sterol (SS) values are expressed as a percentage of control values.

[1] = read-out: LS (liver sterol), percentage of control values
[2] = read-out: SS (serum sterol), percentage of control values
[3] = dose .003% of the diet, read-out: LS (liver sterol), percentage of control values
[4] = dose .003% of the diet, read-out: SS (serum sterol), percentage of control values

Compound | response vs control in vivo at 0.001 % [1] [%] | response vs control in vivo at 0.001 % [2] [%] | response vs control in vivo at 0.003 % [3] [%] | response vs control in vivo at 0.003 % [4] [%] | also measured
1-(n-Heptyl)-1-[4-(1,5-dimethylhexyl)benzyl]-3-(2,4,6-trifluoromethylphenyl)urea | – | – | – | – | LS (liver sterol), percentage of control values (dose .003% of the diet): 65 percentage of control values; SS (serum sterol), percentage of control values (dose .003% of the diet): 57 percentage of control values
CC(C)(C)CCN(Cc1ccc(Cl)cc1)C(=O)Nc1ccc(C(F)(F)F)cc1 [1-(3,3-Dimethylbutyl)-1-(4-chlorobenzyl)-3-(4-trifluoromethylphenyl)urea] | – | – | – | – | response vs control in vivo at 0.03 % [1]: 70%; response vs control in vivo at 0.03 % [2]: 85%
CCCCc1ccc(CN(CCC(C)(C)C)C(=O)Nc2ccc(C(F)(F)F)cc2)cc1 [1-(3,3-Dimethylbutyl)-1-[4-(n-butyl)benzyl]-3-(4-trifluoromethylphenyl)urea] | – | – | – | – | response vs control in vivo at 0.03 % [1]: 86%; response vs control in vivo at 0.03 % [2]: 100%
CC(C)CCCCN(Cc1ccc(CCC(C)C)cc1)C(=O)Nc1c(F)cc(F)cc1F [1-(Isoheptyl)-1-[4-(isopentyl)benzyl]-3-(2,4,6-trifluorophenyl)urea] | 45 | 33 | – | – | –
CC(C)CCCCN(Cc1ccc(CCC(C)C)cc1)C(=O)Nc1ccc(F)cc1F [1-(Isoheptyl)-1-[4-(isopentyl)benzyl]-3-(2,4-difluorophenyl)urea] | – | – | 45 | 24 | –
Cc1cc(Cl)cc(C)c1NC(=O)N(CCCCC(C)C)Cc1ccc(CCC(C)C)cc1 [1-(Isoheptyl)-1-[4-(isopentyl)benzyl]-3-(4-chloro-2,6-dimethylphenyl)urea] | 40 | 40 | – | – | –
CCCCCCOc1ccc(CN(CCCC)C(=O)Nc2c(C)cc(C)cc2C)cc1 [1-(n-Butyl)-1-(4-hexyloxybenzyl)-3-(2,4-trimethylphenyl)urea] | – | – | – | – | response vs control in vivo at 0.03 % [1]: 15%; response vs control in vivo at 0.03 % [2]: 54%
CCCCCCCN(Cc1ccc(C(C)CCCC(C)C)cc1)C(=O)Nc1ccc(F)cc1F (stereo not drawn) [1-(n-Heptyl)-1-[4-(1,5-dimethylhexyl)benzyl]-3-(2,4-difluorophenyl)urea] | 88 | 83 | – | – | –
CCCCCCCN(Cc1ccc(C(C)CCCC(C)C)cc1)C(=O)Nc1c(C)cc(Cl)cc1C (stereo not drawn) [1-(n-Heptyl)-1-[4-(1,5-dimethylhexyl)benzyl]-3-(4-chloro-2,6-dimethylphenyl)urea] | 100 | 94 | – | – | –
CCCCCCCN(Cc1ccc(CC(C)(C)C)cc1)C(=O)Nc1c(F)cc(F)cc1F [1-(n-Heptyl)-1-[4-(2,2-dimethylpropyl)phenylmethyl]-3-(2,4,6-trifluorophenyl)urea] | – | – | 55 | 38 | –
CCCCCCCN(Cc1ccc(CC(C)(C)C)cc1)C(=O)Nc1ccc(F)cc1F [1-(n-Heptyl)-1-[4-(2,2-dimethylpropyl)phenylmethyl]-3-(2,4-difluorophenyl)urea] | – | – | – | – | response vs control in vivo at 0.01 % [1]: 51%; response vs control in vivo at 0.01 % [2]: 22%
CCCCCCCN(Cc1ccc(CC(C)(C)C)cc1)C(=O)Nc1c(C)cc(Cl)cc1C [1-(n-Heptyl)-1-[4-(2,2-dimethylpropyl)phenylmethyl]-3-(4-chloro-2,6-dimethylphenyl)urea] | – | – | 54 | 41 | –
CCCCCCCN(Cc1ccc(CC(C)C(C)CC)cc1)C(=O)Nc1c(F)cc(F)cc1F (stereo not drawn) [1-(n-Heptyl)-1-[4-(2,3-dimethylpentyl)benzyl]-3-(2,4,6-trifluorophenyl)urea] | – | – | – | – | response vs control in vivo at 0.01 % [1]: 31%; response vs control in vivo at 0.01 % [2]: 33%
CCCCCCCN(Cc1ccc(CC(C)C(C)CC)cc1)C(=O)Nc1ccc(F)cc1F (stereo not drawn) [1-(n-Heptyl)-1-[4-(2,3-dimethylpentyl)benzyl]-3-(2,4-difluorophenyl)urea] | – | – | – | – | response vs control in vivo at 0.01 % [1]: 63%; response vs control in vivo at 0.01 % [2]: 48%
CCCCCCCN(Cc1ccc(CCOC(C)=O)cc1)C(=O)Nc1ccc(F)cc1F [1-(n-Heptyl)-1-[4-(2-acetoxyethyl)benzyl]-3-(2,4-difluorophenyl)urea] | – | – | 60 | 55 | –
CCCCCCCN(Cc1ccc(CC(CC)CC)cc1)C(=O)Nc1c(F)cc(F)cc1F [1-(n-Heptyl)-1-[4-(2-ethylbutyl)benzyl)-3-(2,4,6-trifluorophenyl)urea] | 75 | 120 | – | – | –
CCCCCCCN(Cc1ccc(CC(CC)CC)cc1)C(=O)Nc1ccc(F)cc1F [1-(n-Heptyl)-1-[4-(2-ethylbutyl)benzyl]-3-(2,4-difluorophenyl)urea] | – | – | 98 | 66 | –

Compound | response vs control in vivo at 0.001 % [1] [%] | response vs control in vivo at 0.001 % [2] [%] | response vs control in vivo at 0.003 % [3] [%] | response vs control in vivo at 0.003 % [4] [%] | also measured
CCCCCCCN(Cc1ccc(CC(CC)CC)cc1)C(=O)Nc1c(C)cc(Cl)cc1C [1-(n-Heptyl)-1-[4-(2-ethylbutyl)benzyl]-3-(4-chloro-2,6-dimethylphenyl)urea] | 94 | 62 | – | – | –
CCCCCCCN(Cc1ccc(CC(CC)CCCC)cc1)C(=O)Nc1c(F)cc(F)cc1F (stereo not drawn) [1-(n-Heptyl)-1-[4-(2-ethylhexyl)benzyl]-3-(2,4,6-trifluorophenyl)urea] | 87 | 82 | – | – | –
CCCCCCCN(Cc1ccc(CC(CC)CCCC)cc1)C(=O)Nc1ccc(F)cc1F (stereo not drawn) [1-(n-Heptyl)-1-[4-(2-ethylhexyl)benzyl]-3-(2,4-difluorophenyl)urea] | – | – | 56 | 63 | –
CCCCCCCN(Cc1ccc(CC(CC)CCCC)cc1)C(=O)Nc1c(C)cc(Cl)cc1C (stereo not drawn) [1-(n-Heptyl)-1-[4-(2-ethylhexyl)benzyl]-3-(4-chloro-2,6-dimethylphenyl)urea] | 87 | 83 | – | – | –
CCCCCCCN(Cc1ccc(CCO)cc1)C(=O)Nc1ccc(F)cc1F [1-(n-Heptyl)-1-[4-(2-hydroxyethyl)benzyl]-3-(2,4-difluorophenyl)urea] | – | – | 59 | 52 | –
CCCCCCCN(Cc1ccc(CC[S+]([O-])C(C)C)cc1)C(=O)Nc1c(C)cc(Cl)cc1C (stereo not drawn) [1-(n-Heptyl)-1-[4-(2-isopropylsulfinylethyl)benzyl]-3-(4-chloro-2,6-dimethylphenyl)urea] | – | – | 54 | 45 | –
CCCCCCCN(Cc1ccc(CCS(=O)(=O)C(C)C)cc1)C(=O)Nc1ccc(F)cc1F [1-(n-Heptyl)-1-[4-(2-isopropylsulfonylethyl)benzyl]-3-(2,4-difluorophenyl)urea] | – | – | 68 | 94 | –
CCCCCCCN(Cc1ccc(CCS(=O)(=O)C(C)C)cc1)C(=O)Nc1c(C)cc(Cl)cc1C [1-(n-Heptyl)-1-[4-(2-isopropylsulfonylethyl)benzyl]-3-(4-chloro-2,6-dimethylphenyl)urea] | – | – | 54 | 57 | –
CCCCCCCN(Cc1ccc(CCSC(C)C)cc1)C(=O)Nc1c(C)cc(Cl)cc1C [1-(n-Heptyl)-1-[4-(2-isopropylthioethyl)benzyl]-3-(4-chloro-2,6-dimethylphenyl)urea] | – | – | 51 | 49 | –
CCCCCCCN(Cc1ccc(CC(C)CC)cc1)C(=O)Nc1c(F)cc(F)cc1F (stereo not drawn) [1-(n-Heptyl)-1-[4-(2-methylbutyl)benzyl]-3-(2,4,6-trifluorophenyl)urea] | 64 | 76 | – | – | –
CCCCCCCN(Cc1ccc(CC(C)CC)cc1)C(=O)Nc1ccc(F)cc1F (stereo not drawn) [1-(n-Heptyl)-1-[4-(2-methylbutyl)benzyl]-3-(2,4-difluorophenyl)urea] | – | – | – | – | response vs control in vivo at 0.01 % [1]: 42%; response vs control in vivo at 0.01 % [2]: 36%
CCCCCCCN(Cc1ccc(CC(C)CCC)cc1)C(=O)Nc1c(F)cc(F)cc1F (stereo not drawn) [1-(n-Heptyl)-1-[4-(2-methylpentyl)benzyl]-3-(2,4,6-trifluorophenyl)urea] | 75 | 93 | – | – | –
CCCCCCCN(Cc1ccc(CC(C)CCC)cc1)C(=O)Nc1ccc(F)cc1F (stereo not drawn) [1-(n-Heptyl)-1-[4-(2-methylpentyl)benzyl]-3-(2,4-difluorophenyl)urea] | – | – | 72 | 53 | –
CCCCCCCN(Cc1ccc(CC(C)CCC)cc1)C(=O)Nc1c(C)cc(Cl)cc1C (stereo not drawn) [1-(n-Heptyl)-1-[4-(2-methylpentyl)benzyl]-3-(4-chloro-2,6-dimethylphenyl)urea] | 56 | 61 | – | – | –
CCCCCCCN(Cc1ccc(OCCC(C)C)cc1)C(=O)Nc1ccc(F)cc1F [1-(n-Heptyl)-1-[4-(3-methylbutoxy)benzyl]-3-(2,4-difluorophenyl)urea] | – | – | – | – | response vs control in vivo at 0.01 % [1]: 32%; response vs control in vivo at 0.01 % [2]: 27%
CCCCCCCN(Cc1ccc(CCC(C)CC)cc1)C(=O)Nc1c(F)cc(F)cc1F (stereo not drawn) [1-(n-Heptyl)-1-[4-(3-methylpentyl)benzyl]-3-(2,4,6-trifluorophenyl)urea] | – | – | 46 | 36 | –
